From patent publication US20100247433A1, “Use of non-canonical amino acids as metabolic markers for rapidly-dividing cells” (California Institute of Technology, priority 2005, published 2010)
“Also recorded” adds a separate entry of the source. Like-named read-outs stand apart in the source and are kept apart here.

Legend:
[1] = tested on: dissociated hippocampal neurons; experiment: Fluorescent tagging (TRA/FLA tag) of AHA- or HPG-incorporated proteins in neurons; assay type: cell-based, rat; settings: 1 hour; for incorporation into neurons (fluorescent tag detection): DIV 17, 4 mM, 1 μM TRA or FLA tag
Method: (§1) Dissociated hippocampal neuron cultures were prepared from newborn rat pups (PO) as outlined in (Banker and Goslin, 1990), Neurons were plated at a density of 15,000-45,000 cells/cm^2 onto poly-D-lysine coated cell culture dishes or onto poly-D-lysine and growth factor reduced matrigel (BD Biosciences) coated polycarbonate nets with a pore size of 3 μm (Transwell, Corning) for the preparation of isolated dendrites. The cultures were maintained and allowed to mature in growth medium (Neurobasal-A supplemented with B27 and GlutaMAX-1) for 14 to 21 days before use. The use of this growth medium suppressed glial proliferation, which was even more reduced by application of Ara-C (5 μM final concentration). To supplement glial neurotrophic factors, 25% conditioned growth media from glial and cortical cultures were added to the growth media. Isolated dendrites were obtained from Transwell cultures by removing the cell body layer with a sterile cell lifter after change to HBS. For immunolabeling after AHA-incorporation and cycloaddition with BiotinCyclooctyne, neurons are fixed at room temperature with 4% paraformaldehyde for 20 minutes. Fixed cultures are then treated sequentially with PBS, blocking solution (0.2% Triton X-100, 2 mg/ml BSA, 5% Sucrose, 10% normal horse serum in PBS), primary Ab in blocking solution at 4° C. overnight, PBS-Tx (0.2% Triton X-100 in PBS), Alexa488- or Alexa568-conjugated secondary Ab in blocking solution, PBS-Tx and PBS. Immunostained specimens are imaged in PBS with an Olympus confocal microscope or two-photon microscope through either a 10× or a 63× oil-immersion lens. Alexa568 is excited at 543 nm and Alexa488 at 488 nm. Images are recorded through standard emission filters at contrast settings for which the crossover between the two channels is negligible.
In certain embodiments of the invention, two or more pairs of different non-natural amino acid/labeling reagents may be used to simultaneously or sequentially label the newly synthesized proteins. […]

[2] = tested on: HEK293 cells; experiment: Specificity of AHA labelling of newly synthesized proteins, anti-biotin Western blot after [3+2] cycloaddition; assay type: cell-based; settings: 2 hrs with AHA plus inhibitor
Method: In embodiments using [3+2] Cycloaddition, the following exemplary protocol may be used. Briefly, AHA, Biotin-PEO-Propargylamide and the triazole ligand were prepared as described previously. The tandem featured alkyne tag was synthesized by GenScript Corporation. Biotin-Cyclooctyne is a generous gift from Carolyn Bertozzi. D10-L-leucine was purchased from Sigma. In all culture experiments, growth medium was removed from HEK293 cells, whole neuronal cultures or isolated dendrites were replaced with HEPES-buffered solution (HBS) with 2.86 mM AHA, and 2.86 mM methionine for control experiments. After incubation at 37° C., 5% CO2, cells were washed with PBS-MC (1 mM MgCl2, 0.1 mM CaCl2 in PBS) to remove excess amounts of AHA and methionine. SNS and other biochemical fractions are incubated with 2.86 mM AHA or 2.86 mM methionine under agitation at 37° C. and washed in StimBuffer after incubation. […]
(§2) To show the specificity of this technique for the detection of newly synthesized proteins, HEK293 cells were incubated for 2 hrs with AHA in the presence or absence of a protein synthesis inhibitor (Anisomycin or Cycloheximide). […] The potential for increased protein degradation was measured by examining the ubiquitin signal strength on a Western blot from whole lysates of HEK293 cells, which were treated with AHA, methionine or incubation buffer for two hours.

[3] = tested on: dendrites of hippocampal neurons; experiment: Time-course of detection of newly synthesized proteins in dendrites; assay type: cell-based, rat
Method: as §1
Representative straightened dendrites of neurons (DIV 16) incubated with 4 mM AHA, 4 mM Methionine (Met) or AHA plus 40 μM anisomycin (Aniso) for time points indicated. The lookup table indicates fluorescence intensity. The left end is the proximal end, the right end is the distal end. […]

[4] = tested on: Dissociated hippocampal cultured neurons; experiment: Toxicity of AHA by gross morphology of GFP-expressing neurons; assay type: cell-based, rat; settings: 12 DIV neurons, 2 hrs, equimolar AHA or methionine control
Method: Dissociated hippocampal neuron cultures were prepared from newborn rat pups (PO) as outlined in (Banker and Goslin, 1990), Neurons were plated at a density of 15,000-45,000 cells/cm^2 onto poly-D-lysine coated cell culture dishes or onto poly-D-lysine and growth factor reduced matrigel (BD Biosciences) coated polycarbonate nets with a pore size of 3 μm (Transwell, Corning) for the preparation of isolated dendrites. The cultures were maintained and allowed to mature in growth medium (Neurobasal-A supplemented with B27 and GlutaMAX-1) for 14 to 21 days before use. […] To supplement glial neurotrophic factors, 25% conditioned growth media from glial and cortical cultures were added to the growth media. Isolated dendrites were obtained from Transwell cultures by removing the cell body layer with a sterile cell lifter after change to HBS. For immunolabeling after AHA-incorporation and cycloaddition with BiotinCyclooctyne, neurons are fixed at room temperature with 4% paraformaldehyde for 20 minutes. […] Images are recorded through standard emission filters at contrast settings for which the crossover between the two channels is negligible. […]

[5] = tested on: HEK293 cells; experiment: Ubiquitin signal on Western blot of whole lysates (protein degradation/misfolding); assay type: cell-based; settings: HEK293 cells treated two hours, compared to buffer or methionine controls
Method: as §2, with “Cycloheximide). After incubation, cells were lysed and subjected to [3+2]cycloaddition with the biotin-bearing alkyne-linker Biotin-PEO-Propargylamide, followed by Western blot analysis with an anti-Biotin-antibody.” for “Cycloheximide).”

[6] = tested on: acute hippocampal slices; experiment: AHA incorporation in acute hippocampal slices, Biotin-PEO tagging, Neutravidin, Western blot; assay type: cell-based, rat; settings: 400 μm slices, varying concentrations of AHA, 1.5 hours
Method: These slices were recovered in artificial cerebrospinal fluid (ACSF) for at least 1 hour on organotypic membranes. Upon recovery, the slices were incubated with either a mixture of ^35S Met and ^35S Cys, or varying concentrations of AHA for 1.5 hours. FIG. 3C is a Western blot analysis for AHA-incorporated proteins from acute hippocampal slices. After AHA incorporation and slice homogenization, the homogenates were subjected to [3+2]-cycloaddition with a Biotin-PEO tag, and proteins incorporating AHA (and thus subsequently labeled by the Biotin-PEO labeling moiety) were concentrated using Neutravidin-conjugated beads (which binds the Biotin-PEO labeling moiety).

[7] = tested on: hippocampal dysembryoplastic neuroepithelial tumor (DNT) tissue; experiment: AHA labelling of newly synthesized proteins in freshly dissected DNT tumor versus control tissue, anti-biotin Western blot; assay type: cell-based, human; settings: 4 mM AHA, 1 hour, 37° C., equal total protein; control lateral temporal cortex of the same patient
Method: FIG. 5: Detection of newly synthesized proteins in cells of acutely dissected human brain tissue. Tumor and control cells were trypsinized and triturated before incubation with 4 mM AHA for 1 hour at 37° C. After cell lysis and Cu(I)-catalyzed tagging with a biotin-FLAG-alkyne tag, samples were subjected to Neutravidin-purification to separate newly synthesized proteins from pre-existing proteins, and analyzed on a Western blot using an anti-biotin antibody. Same total protein amounts were used for both tumor and control tissue. Input: sample before affinity purification; Supernatant: unbound material after Neutravidin-purification; NA: Neutravidin.
Having obtained the proper conditions for labeling dissected tissues, Applicants repeated the experiments in freshly dissected human DNT tumor tissues and control tissues. […] As a control, non-diseased tissue (lateral temporal cortex) from the same patient was analyzed along with the DNT tissue.
Freshly dissected tumor and control tissue were obtained in operating room. To ensure optimal uptake of AHA, both tissues were trypsinized and triturated into single cells before treatment with AHA and deuterated 1-lysine. Incubation with AHA was done at 37° C. under constant agitation. The tissues were subsequently lysed in SDS and Tx-100 buffer, and the newly synthesized proteins were Neutravidin (NA)-purified. […]

[8] = tested on: mammalian cells, primary neuronal cell cultures; experiment: General properties of AHA in cell cultures (previous experiments and literature); assay type: cell-based
[9] = tested on: mammalian cells, primary neuronal cell cultures; settings: Dieterich et al. 2006, cited from earlier work

With C#CCCC(N)C(=O)O (stereo not drawn) [HPG, Homopropargylglycine] the “incorporation into neurons (fluorescent tag detection)” value [1] was “successfully incorporated”.

In the case of C[C@@H]1C[C@@H]([C@H](O)CC2CC(=O)NC(=O)C2)C(=O)[C@@H](C)C1 [Cycloheximide], the “anti-biotin signal of AHA-labelled proteins in the presence of the protein synthesis inhibitor” value [2] was “No signal was detected”.

With COc1ccc(C[C@H]2NC[C@H](O)[C@H]2OC(C)=O)cc1 [Anisomycin, reference compound] the “anti-biotin signal of AHA-labelled proteins in the presence of the protein synthesis inhibitor” value [2] was “No signal was detected”, the “effect of the protein synthesis inhibitor on AHA incorporation” value ([1]; 40 μM with 4 mM AHA) was “completely abolished AHA incorporation” and the “effect of the protein synthesis inhibitor on AHA labelling of dendrites” value ([3]; 40 μM with AHA) was “completely inhibited”.

With [N-]=[N+]=NCC[C@H](N)C(=O)O [AHA, azidohomoalanine] the “toxicity to neurons (gross morphology, GFP expression in the dendritic arbor)” value [4] was “not toxic to neurons”, the “ubiquitination of total protein” value [5] was “No increased ubiquitination” and the “incorporation into newly synthesized proteins (biotinylated proteins after Neutravidin)” value [6] was “vast enrichment of biotinylated proteins”. The “level of protein synthesis by AHA labelling, tumor versus non-diseased tissue” value [7] was “substantially higher in cells from tumor tissue”, the “incorporation into neurons (fluorescent tag detection)” value [1] was “successfully incorporated” and the “time at which AHA incorporation was visible” value ([3]; DIV 16, 4 mM AHA) was 10 min. For the same molecule, the “time by which whole neuron soma and dendrite was filled with AHA-labeled proteins” value ([3]; DIV 16, 4 mM AHA) was no more than 40 min, the cell toxicity [8] was “not toxic even in primary neuronal cell cultures; also recorded: undetected cell toxicity” and the membrane permeability [8] was “excellent membrane permeability”. The “protein degradation upon introduction of AHA” value ([8]; E. coli and mammalian cells) was “no evidence of increased protein degradation”, the “global protein synthesis rates” value [9] was “no evidence that AHA exposure alters global protein synthesis rates” and the “ubiquitination of total protein” value ([9]; compared to buffer or methionine controls) was “no increase in the ubiquitination”. The cell toxicity ([9]; incl. primary cultured postnatal neurons) was “not toxic to cells”.
